Here are results for twelve molecules from patent EP0406111A1, “Substituted arylamines and heteroarylamines, process for their preparation and pharmaceutical composition containing them” (SOCIETE DE CONSEILS DE […] D'APPLICATIONS SCIENTIFIQUES …, priority 1989, dated 1991).

Assay [1] addresses T1, complexe de recapture de la dopamine (Rattus norvegicus, UniProt P23977).
T1 construct: expériences de compétition sur les membranes de striatum préparées comme ci-dessus; from tissue; host or cells: rat striatal membranes
The assay is described as follows: biochemical. Type of assay: binding. The protocol: Exemple 35 : Affinité des composés pour les sites de liaison de la (³H)BTCP sur les membranes striatales de cerveaux de rats.
Les striata de cerveaux de rats rapidement disséqués dans la glace sont homogénéisés avec un ultra turax pendant 30 s (position 6) dans 50 volumes d'une solution de sucrose 0,32 M tamponnée par du Tris-HCl 10 mM à pH = 7,4. L'homogénat est centrifugé à 4°C à 1000g pendant 10 mln, puis le surnageant obtenu est centrifugé à 40000 g à 4°C pendant 30 min et les culots obtenus sont repris dans 1 ml de tampon par striatum.
L'affinité des composés pour le complexe de recapture de la dopamine est déterminée par des expériences de compétition sur les membranes de striatum préparées comme ci-dessus. Le ligand radioactif utilisé est la (³H)BTCP (Service des Molécules Marquées du CEA, Saclay France) à 55Ci/mmol.
Après 90 min à 4°C, 3 aliquots de 250 µl sont filtrés sous vide sur des filtres de fibre de verre GF/B (Whatman). La liaison non spécifique est obtenue dans des expériences parallè-les réalisées en présence de 10 µM de BTCP non marquée. Elle est soustraite de la liaison totale pour obtenir la liaison spécifique.

In another assay the test system is souris Swiss. Description: Locomotor activity of mice in the Boissier-Simon actimeter (Example 38). Type of assay: in vivo. As to conditions: 30 min after administration, beams crossed from 20th to 35th minute. The protocol:
Exemple 38 : Mesure de l'activité locomotrice.
L'activité locomotrice de souris Swiss (mâles CD1, 25-30 g, Charles River, St Aubin lès Elbeuf, France) est mesurée dans l'actimètre Boissier-Simon (Apelex, Bagneux, France).
30 minutes après l'administration des composés à tester (10 mg/kg, i.p.), les souris sont introduites dans des cages individuelles en Plexiglass (L = 26 cm, l = 20 cm, h = 10 cm), équipées de deux cellules photoélectriques situées à 1 cm au-dessus du plancher. Chaque cellule est reliée à un compteur électromécanique. "L'activité locomotrice" correspond au nombre de rayons traversés, de la 20ème à la 35ème minute après introduction dans les cages d'actimétrie.

Assay [2] has as its target T2, capture de (³H)dopamine par les synaptosomes striataux de rat (Rattus norvegicus, UniProt P23977).
T2 construct: Les culots résultants P2 contenant les synaptosomes bruts sont ensuite utilisés sans purification supplémentaire; from tissue; host or cells: Wistar rat striatum, crude synaptosomes (P2 pellet)
The assay is described as follows: biochemical. How it is done: Ce test est pratiqué selon la méthode utilisée par Vignon et Lazdunski en opérant de la façon suivante. Des rats Wistar pesant 200-250g sont tués par dislocation cervicale. Leurs cerveaux sont rapidement prélevés et les striata sont dissé-qués sur la glace. Les striata sont ensuite homogéné-isés (10 allers-retours) avec un homogénéisant Potter dans 50 volumes de tampon Tris HCl 10 mM à pH 7,4 contenant 0,32 M de sucrose. L'homogénat est ensuite centrifugé à 1000g pendant 10min à 4°C, puis le surnageant obtenu est recentrifugé à 10000g pendant 20min à 4°C. Les culots résultants P2 contenant les synaptosomes bruts sont ensuite utilisés sans purification supplémentaire.
On ajoute alors de la dopamine tritiée ((³H)DA, Amersham) à une concentration finale de 5 nM pendant 5 min à 30°C, et on interrompt sa capture par filtration de 150 µl du milieu d'incubation sur des filtres en fibres de verre GF/B (Whatman). La radioactivité retenue par les filtres est mesurée dans un compteur à scintillation liquide (LKB)avec 3 ml d'ACS (Amersham) comme scintillant. La capture non spécifique est mesurée à 4°C dans des incubations parallèles : elle est ensuite sous-traite de la capture totale mesurée à 30°C.
Les composés à tester sont solubilisés au départ dans de l'eau à une concentration de 1mM et les autres concentrations sont obtenues par des dilutions successives de cette solution mère dans l'eau.

The mark [3] stands for this setting: rat striatal membranes, 0,2 nM (3H)BTCP, 90 min at 4°C, read-out: [3H] BTCP IC50.
Setting [4] is: rat striatal synaptosomes, 5 nM (3H)DA, 5 min at 30°C, read-out: [3H] DA IC50.

Read-outs that look alike come from different tables or passages of the source.

T2 sequence (P23977 whole entry): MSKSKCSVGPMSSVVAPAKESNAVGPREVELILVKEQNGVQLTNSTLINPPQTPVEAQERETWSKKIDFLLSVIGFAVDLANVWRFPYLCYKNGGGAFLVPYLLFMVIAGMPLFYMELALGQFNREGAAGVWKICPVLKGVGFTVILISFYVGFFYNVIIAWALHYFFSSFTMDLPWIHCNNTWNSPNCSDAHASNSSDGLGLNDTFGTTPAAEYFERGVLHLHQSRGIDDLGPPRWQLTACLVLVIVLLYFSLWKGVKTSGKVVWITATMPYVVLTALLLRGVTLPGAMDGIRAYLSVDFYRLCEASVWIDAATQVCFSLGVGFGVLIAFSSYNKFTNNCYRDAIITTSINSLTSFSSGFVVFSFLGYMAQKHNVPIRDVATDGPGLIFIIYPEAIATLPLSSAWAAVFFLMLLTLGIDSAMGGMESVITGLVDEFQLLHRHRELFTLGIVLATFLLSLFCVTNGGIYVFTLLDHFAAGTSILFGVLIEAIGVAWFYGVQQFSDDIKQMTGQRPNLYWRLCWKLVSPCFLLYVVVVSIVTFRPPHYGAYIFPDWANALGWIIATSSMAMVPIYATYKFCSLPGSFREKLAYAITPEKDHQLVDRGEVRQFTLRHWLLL
T1 sequence (P23977 whole entry, one chain of several): as the sequence (P23977 whole entry) above

`OCC1CCCN(C2(c3cc4ccccc4s3)CCCCC2)C1` (stereo not drawn) [composé n^o 9, (benzo(b)thiophényl-2)-1 ((hydroxyméthyl-3 pipéridino)-1)-1 cyclohexane]: the IC50 turned out to be 18.1 nM in assay [1] (setting [3]) and 20.9 nM in assay [2] (setting [4]). In addition, the “Activité locomotrice Variation (%) par rapport aux témoins (100%) pour la dose 10 mg/kg,i.p.” value in the assay with souris Swiss is reported as “+416±36%”.

Take `CC(=O)OCC1CCCN(C2(c3cc4ccccc4s3)CCCCC2)C1` (stereo not drawn) [composé n^o 15, acétate de (benzo(b)-thiophényl-2)-1 ((hydroxyméthyl-3 pipéridino)-1)-1 cyclohexane]: the IC50 in assay [1] (setting [3]) is 24 nM; in assay [2] (setting [4]), 44.5 nM.

`C[C@H]1CCC[C@@](c2cc3ccccc3s2)(N2CCCCC2)C1` (relative stereo) [composé n^o 22, (benzo(b)thiophényl-2)-1 c-méthyl-3-r-(piperidino-1)-1 cyclohexane]: the IC50 in assay [1] (setting [3]) was determined as 369 nM; in assay [2] (setting [4]), 691 nM.

With `CC1CCCCC1(c1cc2ccccc2s1)N1CCCCC1` (stereo not drawn) [composé n^o 25, (benzo(b)thiophényl-2)-1 t-méthyl-2--r-(pipéridino-1)-1 cyclohexane], the concentration for half-maximal inhibition (IC50) was 1480 nM in assay [1] (setting [3]) and 1280 nM in assay [2] (setting [4]).

On to `ClCC1CCCN(C2(c3cc4ccccc4s3)CCCCC2)C1` (stereo not drawn) [composé n^o 12, (benzo(b)thiophényl-2)-1 ((chlorométhyl-3 pipéridino)-1)-1 cyclohexane], for which the IC50 in assay [1] (setting [3]) came out at 102 nM; in assay [2] (setting [4]), 107 nM.

`CC1CC(C)CN([C@]2(c3cc4ccccc4s3)CC[C@H](C)CC2)C1` (relative stereo) [composé n^o 13, (benzo(b)thiophényl-2)-1-r-((diméthyl-3,5 pipéridino)-1)-1 c-méthyl-4 cyclohexane]: the IC50 in assay [1] (setting [3]) turned out to be 635 nM; in assay [2] (setting [4]) it was 425 nM.

In the case of `CC1CCCC(c2cc3ccccc3s2)(N2CCCCC2)C1` (stereo not drawn) [composé n^o 23, (benzo(b)thiophényl-2)-1 t-méthyl-3-r-(pipéridino-1)-1 cyclohexane], the IC50 in assay [1] (setting [3]) turned out to be 590 nM; in assay [2] (setting [4]), 606 nM.

In the case of `CCN(CC)C1(c2cc3ccccc3s2)CCCCC1` [composé n^o8, (benzo(b)thiophényl-2)-1 (diéthylamino-1)-1 cyclohexane], the IC50 in assay [1] amounted to 16.7 nM; in assay [2] it was 20.1 nM. The “Activité locomotrice Variation (%) par rapport aux témoins (100%) pour la dose 10 mg/kg,i.p.” value with souris Swiss was “+52±21%”.

With `c1ccc2c(C3(N4CCCCC4)CCCCC3)cccc2c1` [composé n^o 17, (naphtyl-1)-1 (pipéridino-1)-1 cyclohexane], the IC50 is 2560 nM in assay [1] (setting [3]) and 3250 nM in assay [2] (setting [4]).

As for `CC1CC(C)CN(C2(c3cc4ccccc4o3)CCCC(C)C2)C1` (stereo not drawn) [composé n^o 14, (benzo(b)furannyl-2)-1-r-((diméthyl-3,5 pipéridino)-1)-1 t-méthyl-3 cyclohexane], the results for the IC50 in assay [1] (setting [3]) and in assay [2] (setting [4]) were 2210 nM and 2740 nM, respectively.

Consider `C[C@H]1CCCC[C@@]1(c1cc2ccccc2s1)N1CCCCC1` (relative stereo) [composé n^o 24, (benzo(b)thiophényl--2)-1 c-méthyl-2-r-(pipéridino-1)-1 cyclohexane], for which the IC50 in assay [1] (setting [3]) is 14.7 nM; in assay [2] (setting [4]), 30.6 nM. For the same molecule, the “Activité locomotrice Variation (%) par rapport aux témoins (100%) pour la dose 10 mg/kg,i.p.” value with souris Swiss is “+101±23%”.

As for `CC1CCN(C2(c3cc4ccccc4s3)CCCCC2)CC1` [composé n^o 7, (benzo(b)thiophényl-2)-1 ((méthyl-4 pipéridino)-1)-1 cyclohexane], the IC50 was 30.8 nM in assay [1] (setting [3]) and 11.5 nM in assay [2] (setting [4]).
